What was measured:
Assay in all cases: Weeding effect in post-emergence stage
Type in all cases: in vivo
Settings in all cases: fresh weight control rate level
Abutilon theophrasti = test system: Abutilon theophrasti
Summary of the method: (§1)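 Post-emergence spray tower; 2-3 leaf plants (2 wk after sowing, soil pots, greenhouse). Formulation: acetone, Tween 80, methyl oleate EC 1.5 liter/ha as synergist, water. Rates 500–7.5 g/ha. Growth control rate read at 3 wk; n=3, averaged.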

Alopecurus japonicus = test system: Alopecurus japonicus
Summary of the method: as §1

Digitaria sanguinalis = test system: Digitaria sanguinalis
Summary of the method: as §1

Eleusine indica = test system: Eleusine indica
Summary of the method: as §1

Setaria viridis = test system: Setaria viridis
Summary of the method: as §1

Echinochloa crusgalli = test system: Echinochloa crusgalli
Summary of the method: as §1

Row | SMILES | Weeding effect in post-emergence stage, Abutilon theophrasti (level) (Abutilon theophrasti; Dose 15 g/ha) | Weeding effect in post-emergence stage, Alopecurus japonicus (level) (Alopecurus japonicus; Dose 15 g/ha) | Weeding effect in post-emergence stage, Digitaria sanguinalis (level) (Digitaria sanguinalis; Dose 15 g/ha) | Weeding effect in post-emergence stage, Eleusine indica (level) (Eleusine indica; Dose 15 g/ha) | Weeding effect in post-emergence stage, Setaria viridis (level) (Setaria viridis; Dose 15 g/ha) | Weeding effect in post-emergence stage, Echinochloa crusgalli (level) (Echinochloa crusgalli; Dose 15 g/ha) | other results
1 | Cc1cc(C)n(C(=O)[C@@H](C)O/N=C/c2cc(-n3c(=O)cc(C(F)(F)F)n(C)c3=O)c(F)cc2Cl)n1 [424(R)] | – | – | – | – | – | – | Weeding effect in post-emergence stage, Abutilon theophrasti (level) (Abutilon theophrasti; Dose 30 g/ha): 5 (Level 5: growth control rate is above 85%); Weeding effect in post-emergence stage, Alopecurus japonicus (level) (Alopecurus japonicus; Dose 30 g/ha): 5 (Level 5: growth control rate is above 85%); Weeding effect in post-emergence stage, Digitaria sanguinalis (level) (Digitaria sanguinalis; Dose 30 g/ha): 5 (Level 5: growth control rate is above 85%); Weeding effect in post-emergence stage, Eleusine indica (level) (Eleusine indica; Dose 30 g/ha): 5 (Level 5: growth control rate is above 85%); Weeding effect in post-emergence stage, Setaria viridis (level) (Setaria viridis; Dose 30 g/ha): 5 (Level 5: growth control rate is above 85%); Weeding effect in post-emergence stage, Echinochloa crusgalli (level) (Echinochloa crusgalli; Dose 30 g/ha): 5 (Level 5: growth control rate is above 85%)
2 | CCn1c(C(F)(F)F)cc(=O)n(-c2cc(/C=N/O[C@H](C)C(=O)OC)c(Cl)cc2F)c1=O [426(R)] | – | – | – | – | – | – | Weeding effect in post-emergence stage, Abutilon theophrasti (level) (Abutilon theophrasti; Dose 250 g/ha): 5 (Level 5: growth control rate is above 85%); Weeding effect in post-emergence stage, Alopecurus japonicus (level) (Alopecurus japonicus; Dose 250 g/ha): 5 (Level 5: growth control rate is above 85%); Weeding effect in post-emergence stage, Digitaria sanguinalis (level) (Digitaria sanguinalis; Dose 250 g/ha): 5 (Level 5: growth control rate is above 85%); Weeding effect in post-emergence stage, Eleusine indica (level) (Eleusine indica; Dose 250 g/ha): 5 (Level 5: growth control rate is above 85%); Weeding effect in post-emergence stage, Setaria viridis (level) (Setaria viridis; Dose 250 g/ha): 5 (Level 5: growth control rate is above 85%); Weeding effect in post-emergence stage, Echinochloa crusgalli (level) (Echinochloa crusgalli; Dose 250 g/ha): 5 (Level 5: growth control rate is above 85%)
3 | C[C@@H](O/N=C/c1cc(-n2c(=O)n(C)c(=S)n(C)c2=O)c(F)cc1Cl)C(=O)O [438(R)] | – | – | – | – | – | – | Weeding effect in post-emergence stage, Abutilon theophrasti (level) (Abutilon theophrasti; Dose 30 g/ha): 5 (Level 5: growth control rate is above 85%); Weeding effect in post-emergence stage, Alopecurus japonicus (level) (Alopecurus japonicus; Dose 30 g/ha): 5 (Level 5: growth control rate is above 85%); Weeding effect in post-emergence stage, Digitaria sanguinalis (level) (Digitaria sanguinalis; Dose 30 g/ha): 5 (Level 5: growth control rate is above 85%); Weeding effect in post-emergence stage, Eleusine indica (level) (Eleusine indica; Dose 30 g/ha): 5 (Level 5: growth control rate is above 85%); Weeding effect in post-emergence stage, Setaria viridis (level) (Setaria viridis; Dose 30 g/ha): 5 (Level 5: growth control rate is above 85%); Weeding effect in post-emergence stage, Echinochloa crusgalli (level) (Echinochloa crusgalli; Dose 30 g/ha): 5 (Level 5: growth control rate is above 85%)
4 | C[C@@H](O/N=C/c1cc(-n2c(=O)n(C)c(=S)n(C)c2=O)c(F)cc1Cl)C(=O)OCC(F)(F)F [439(R)] | – | – | – | – | – | – | Weeding effect in post-emergence stage, Abutilon theophrasti (level) (Abutilon theophrasti; Dose 30 g/ha): 5 (Level 5: growth control rate is above 85%); Weeding effect in post-emergence stage, Alopecurus japonicus (level) (Alopecurus japonicus; Dose 30 g/ha): 5 (Level 5: growth control rate is above 85%); Weeding effect in post-emergence stage, Digitaria sanguinalis (level) (Digitaria sanguinalis; Dose 30 g/ha): 5 (Level 5: growth control rate is above 85%); Weeding effect in post-emergence stage, Eleusine indica (level) (Eleusine indica; Dose 30 g/ha): 5 (Level 5: growth control rate is above 85%); Weeding effect in post-emergence stage, Setaria viridis (level) (Setaria viridis; Dose 30 g/ha): 5 (Level 5: growth control rate is above 85%); Weeding effect in post-emergence stage, Echinochloa crusgalli (level) (Echinochloa crusgalli; Dose 30 g/ha): 5 (Level 5: growth control rate is above 85%)
5 | C#CCCOC(=O)[C@@H](C)O/N=C/c1cc(-n2c(=O)cc(C(F)(F)F)n(C)c2=O)c(F)cc1Cl [442(R)] | 5 (Level 5: growth control rate is above 85%) | 5 (Level 5: growth control rate is above 85%) | 5 (Level 5: growth control rate is above 85%) | 5 (Level 5: growth control rate is above 85%) | 5 (Level 5: growth control rate is above 85%) | 5 (Level 5: growth control rate is above 85%) | –
6 | CC(C#N)OC(=O)[C@@H](C)O/N=C/c1cc(-n2c(=O)cc(C(F)(F)F)n(C)c2=O)c(F)cc1Cl (stereo partly drawn) [443(R)] | 5 (Level 5: growth control rate is above 85%) | 5 (Level 5: growth control rate is above 85%) | 5 (Level 5: growth control rate is above 85%) | 5 (Level 5: growth control rate is above 85%) | 5 (Level 5: growth control rate is above 85%) | 5 (Level 5: growth control rate is above 85%) | –
7 | CC(CC#N)OC(=O)[C@@H](C)O/N=C/c1cc(-n2c(=O)cc(C(F)(F)F)n(C)c2=O)c(F)cc1Cl (stereo partly drawn) [444(R)] | 5 (Level 5: growth control rate is above 85%) | 5 (Level 5: growth control rate is above 85%) | 5 (Level 5: growth control rate is above 85%) | 5 (Level 5: growth control rate is above 85%) | 5 (Level 5: growth control rate is above 85%) | 5 (Level 5: growth control rate is above 85%) | –
8 | CC(C#N)COC(=O)[C@@H](C)O/N=C/c1cc(-n2c(=O)cc(C(F)(F)F)n(C)c2=O)c(F)cc1Cl (stereo partly drawn) [445(R)] | 5 (Level 5: growth control rate is above 85%) | 5 (Level 5: growth control rate is above 85%) | 5 (Level 5: growth control rate is above 85%) | 5 (Level 5: growth control rate is above 85%) | 5 (Level 5: growth control rate is above 85%) | 5 (Level 5: growth control rate is above 85%) | –
9 | C[C@@H](O/N=C/c1cc(-n2c(=O)cc(C(F)(F)F)n(C)c2=O)c(F)cc1Cl)C(=O)OCCCC#N [446(R)] | 5 (Level 5: growth control rate is above 85%) | 5 (Level 5: growth control rate is above 85%) | 5 (Level 5: growth control rate is above 85%) | 5 (Level 5: growth control rate is above 85%) | 5 (Level 5: growth control rate is above 85%) | 5 (Level 5: growth control rate is above 85%) | –
10 | C[C@@H](O/N=C/c1cc(-n2c(=O)cc(C(F)(F)F)n(C)c2=O)c(F)cc1Cl)C(=O)OCC1(C#N)CC1 [447(R)] | 5 (Level 5: growth control rate is above 85%) | 5 (Level 5: growth control rate is above 85%) | 5 (Level 5: growth control rate is above 85%) | 5 (Level 5: growth control rate is above 85%) | 5 (Level 5: growth control rate is above 85%) | 5 (Level 5: growth control rate is above 85%) | –
11 | C[C@@H](O/N=C/c1cc(-n2c(=O)cc(C(F)(F)F)n(C)c2=O)c(F)cc1Cl)C(=O)OCCN(C)C [448(R)] | 5 (Level 5: growth control rate is above 85%) | 5 (Level 5: growth control rate is above 85%) | 5 (Level 5: growth control rate is above 85%) | 5 (Level 5: growth control rate is above 85%) | 5 (Level 5: growth control rate is above 85%) | 5 (Level 5: growth control rate is above 85%) | –
12 | C/C(=N\OC(=O)[C@@H](C)O/N=C/c1cc(-n2c(=O)cc(C(F)(F)F)n(C)c2=O)c(F)cc1Cl)C(C)(C)C [449(R)] | 5 (Level 5: growth control rate is above 85%) | 5 (Level 5: growth control rate is above 85%) | 5 (Level 5: growth control rate is above 85%) | 5 (Level 5: growth control rate is above 85%) | 5 (Level 5: growth control rate is above 85%) | 5 (Level 5: growth control rate is above 85%) | –
13 | C/C(=N\OC(=O)[C@@H](C)O/N=C/c1cc(-n2c(=O)cc(C(F)(F)F)n(C)c2=O)c(F)cc1Cl)C1CC1 [450(R)] | 5 (Level 5: growth control rate is above 85%) | 5 (Level 5: growth control rate is above 85%) | 5 (Level 5: growth control rate is above 85%) | 5 (Level 5: growth control rate is above 85%) | 5 (Level 5: growth control rate is above 85%) | 5 (Level 5: growth control rate is above 85%) | –
14 | C/C(=N/C(=O)[C@@H](C)O/N=C/c1cc(-n2c(=O)cc(C(F)(F)F)n(C)c2=O)c(F)cc1Cl)c1ccccc1 [453(R)] | – | – | – | – | – | – | Weeding effect in post-emergence stage, Abutilon theophrasti (level) (Abutilon theophrasti; Dose 30 g/ha): 5 (Level 5: growth control rate is above 85%); Weeding effect in post-emergence stage, Alopecurus japonicus (level) (Alopecurus japonicus; Dose 30 g/ha): 5 (Level 5: growth control rate is above 85%); Weeding effect in post-emergence stage, Digitaria sanguinalis (level) (Digitaria sanguinalis; Dose 30 g/ha): 5 (Level 5: growth control rate is above 85%); Weeding effect in post-emergence stage, Eleusine indica (level) (Eleusine indica; Dose 30 g/ha): 5 (Level 5: growth control rate is above 85%); Weeding effect in post-emergence stage, Setaria viridis (level) (Setaria viridis; Dose 30 g/ha): 5 (Level 5: growth control rate is above 85%); Weeding effect in post-emergence stage, Echinochloa crusgalli (level) (Echinochloa crusgalli; Dose 30 g/ha): 5 (Level 5: growth control rate is above 85%)
15 | C[C@@H](O/N=C/c1cc(-n2c(=O)cc(C(F)(F)F)n(C)c2=O)c(F)cc1Cl)C(=O)N1CCOCC1 [454(R)] | – | – | – | – | – | – | Weeding effect in post-emergence stage, Abutilon theophrasti (level) (Abutilon theophrasti; Dose 60 g/ha): 5 (Level 5: growth control rate is above 85%); Weeding effect in post-emergence stage, Alopecurus japonicus (level) (Alopecurus japonicus; Dose 60 g/ha): 5 (Level 5: growth control rate is above 85%); Weeding effect in post-emergence stage, Digitaria sanguinalis (level) (Digitaria sanguinalis; Dose 60 g/ha): 5 (Level 5: growth control rate is above 85%); Weeding effect in post-emergence stage, Eleusine indica (level) (Eleusine indica; Dose 60 g/ha): 5 (Level 5: growth control rate is above 85%); Weeding effect in post-emergence stage, Setaria viridis (level) (Setaria viridis; Dose 60 g/ha): 5 (Level 5: growth control rate is above 85%); Weeding effect in post-emergence stage, Echinochloa crusgalli (level) (Echinochloa crusgalli; Dose 60 g/ha): 5 (Level 5: growth control rate is above 85%)

Source: patent US20230111310A1, “CARBOXYLIC ACID DERIVATIVE-SUBSTITUTED IMINO ARYL COMPOUND, PREPARATION METHOD THEREFOR, HERBICIDAL COMPOSITION AND USE THEREOF” (Qingdao Kingagroot Chemical Compound Co., Ltd., priority 2020, published 2023)
